In US11401286B2 (Tetra Discovery Partners, LLC, priority 2012, dated 2022) one finds IC50 data, which are given here for 15 compounds.

Counter-ions that a name gives are not always drawn.

The assay deals with PDE4D7 (Homo sapiens (Human), UniProt Q08499). The following applies: read-out: PDE4D7 IC50; PDE4D7 without asterisk.
PDE4D7, sequence (Q08499 other isoform, or with tags, fused parts or gaps): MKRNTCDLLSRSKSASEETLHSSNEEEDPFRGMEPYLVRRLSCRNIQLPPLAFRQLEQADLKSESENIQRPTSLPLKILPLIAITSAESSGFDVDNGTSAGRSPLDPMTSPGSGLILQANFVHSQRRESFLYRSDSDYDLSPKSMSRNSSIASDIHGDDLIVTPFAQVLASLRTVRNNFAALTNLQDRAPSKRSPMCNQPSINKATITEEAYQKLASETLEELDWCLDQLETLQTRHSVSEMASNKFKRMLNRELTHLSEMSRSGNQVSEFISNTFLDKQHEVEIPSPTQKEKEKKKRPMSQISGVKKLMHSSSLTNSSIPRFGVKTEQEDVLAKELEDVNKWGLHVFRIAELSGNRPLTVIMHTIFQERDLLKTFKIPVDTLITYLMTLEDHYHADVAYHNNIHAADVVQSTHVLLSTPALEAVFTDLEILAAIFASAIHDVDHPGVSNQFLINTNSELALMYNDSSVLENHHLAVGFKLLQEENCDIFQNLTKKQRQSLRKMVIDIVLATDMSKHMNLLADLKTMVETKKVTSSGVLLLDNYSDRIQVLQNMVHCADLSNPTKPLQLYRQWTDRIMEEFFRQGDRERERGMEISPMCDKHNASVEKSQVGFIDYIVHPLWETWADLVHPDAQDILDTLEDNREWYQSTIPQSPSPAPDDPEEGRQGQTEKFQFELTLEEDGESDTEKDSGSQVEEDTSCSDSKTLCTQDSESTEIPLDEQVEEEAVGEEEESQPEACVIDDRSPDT
One may read the IC50 as the concentration at which inhibition is half-maximal. For the compound `CCc1c(C)nc(-c2ccc(Cl)s2)nc1Nc1ccc2c(c1)COB2O` [Example 71, 2-(5-chloro-2-thienyl)-5-ethyl-N-(1-hydroxy-3H-2,1-benzoxaborol-5-yl)-6-methyl-pyrimidin-4-amine], the IC50 is below 1 µM.
Then `CCc1nc(Nc2ccc(C(=O)O)cc2)nc(-c2cccc(Cl)c2)n1` [Example 40, 4-((4-(3-chlorophenyl)-6-ethyl-1,3,5-triazin-2-yl)amino)benzoic acid], with below 1 µM; and `O=C(O)CCc1ccc(Nc2nc(-c3cccc(Cl)c3)nc3c2CCC3)cc1` [Example 16, 3-[4-[[2-(3-Chlorophenyl)-6,7-dihydro-5H-cyclopenta[d]pyrimidin-4-yl]amino]phenyl]propanoic acid], with above 1 µM.
In the case of `NC(=O)C(Cc1ccc(Nc2cc(-c3cccc(Cl)c3)nc3c2CCC3)cc1)C(N)=O` [Example 122, 2-(4-((2-(3-Chlorophenyl)-6,7-dihydro-5H-cyclopenta[b]pyridin-4-yl)amino)benzyl)malonamide hydrochloride] it was above 1 µM; in that of `CCc1nc(Nc2ccc(CC(N)=O)cc2)nc(-c2cccc(Cl)c2)n1` [Example 57, 2-(4-(4-(3-chlorophenyl)-6-ethyl-1,3,5-triazin-2-ylamino)phenyl)acetamide], below 1 µM.
Regarding `CCc1cc(Nc2ccc(C(C)(C)CO)cc2)nc(-c2cccc(Cl)c2)n1` [Example 184, 2-(4-((2-(3-Chlorophenyl)-6-ethylpyrimidin-4-yl)amino)phenyl)-2-methylpropan-1-ol], the IC50 is above 1 µM.
As for `CCc1nc(Nc2ccc(CC(=O)O)cc2)nc(-c2ccc(Cl)s2)n1` [Example 27, 2-(4-((4-(5-chlorothiophen-2-yl)-6-ethyl-1,3,5-triazin-2-yl)amino)phenyl)acetic acid], the IC50 was above 1 µM.
Regarding `CC(C)(O)Cc1ccc(Nc2cc(-c3cccc(Cl)c3)nc3c2CCC3)cc1` [Example 98, 1-(4-((2-(3-Chlorophenyl)-6,7-dihydro-5H-cyclopenta[b]pyridin-4-yl)amino)phenyl)-2-methylpropan-2-ol], the IC50 was above 1 µM.
Consider `COC(=O)Cc1ccc(Nc2cc(N3CCCC3)nc3c2CCC3)cc1` [Example 237, Methyl 2-(4-((2-(pyrrolidin-1-yl)-6,7-dihydro-5H-cyclopenta[b]pyridin-4-yl)amino)phenyl)acetate hydrochloride], for which the IC50 is above 1 µM.
Consider `Clc1cccc(-c2nc3c(c(Nc4ccc(Cc5nn[nH]n5)cc4)n2)SCCC3)c1` [Example 313, 2-(3-Chlorophenyl)-N-[4-(2H-tetrazol-5-ylmethyl)phenyl]-7,8-dihydro-6H-thiopyrano[3,2-d]pyrimidin-4-amine], for which the IC50 was below 1 µM.
For the compound `Cc1ccc(Cc2cc(-c3cccc(Cl)c3)nc3c2CCC3)cc1` [Example 289, 2-(3-Chlorophenyl)-4-(4-methylbenzyl)-6,7-dihydro-5H-cyclopenta[b]pyridine hydrochloride], the IC50 is above 1 µM.
In the case of `NC(=O)CCCc1ccc(Nc2cc(-c3cccc(Cl)c3)nc3c2CCC3)cc1` [Example 130, 4-(4-((2-(3-Chlorophenyl)-6,7-dihydro-5H-cyclopenta[b]pyridin-4-yl)amino)phenyl)butanamide hydrochloride], the IC50 is above 1 µM.
In the case of `CCc1cc(Nc2ccc(Cn3cccn3)cc2)nc(-c2cccc(Cl)c2)n1` [Example 189, N-(4-((1H-Pyrazol-1-yl)methyl)phenyl)-2-(3-chlorophenyl)-6-ethylpyrimidin-4-amine] it was below 1 µM; in that of `OCCc1ccc(Cc2cc(C(F)(F)F)nc(OC3CCCC3)n2)cc1` [Example 202, 2-(4-((2-(Cyclopentyloxy)-6-(trifluoromethyl)pyrimidin-4-yl)methyl)phenyl)ethanol], above 1 µM.
Regarding `CCc1cc(/N=c2\[nH]cc(CC(N)=O)o2)nc(-c2cccc(Cl)c2)n1` [Example 192, 2-(2-((2-(3-Chlorophenyl)-6-ethylpyrimidin-4-yl)imino)-2,3-dihydrooxazol-5-yl)acetamide], the IC50 was above 1 µM.
